Source: patent publication US20090233999A1, “COMPOSITIONS AND THERAPEUTIC METHODS INVOLVING ISOFLAVONES AND ANALOGUES THEREOF” (NOVOGEN RESEARCH PTY LTD, priority 1999, published 2009)

Assays:
[1] = system: COX (PGE2 and TXB2 synthesis); assay: LPS-induced prostanoid (PGE2, TXB2) synthesis in human monocytes; type: cell-based; details: LPS 200 ng/mL, 18 hrs, data at 10 μM
Method: Human peripheral blood monocytes were isolated from buffy coats by lymphoprep gradient separation followed by counter-current centrifugal elutriation. Test compounds were dissolved in DMSO and added to fresh monocytes to achieve concentrations of 0, 10 and 100 μM. After 30 min, lipopolysaccharide (LPS) was added to achieve a final concentration of 200 ng/mL. After incubation for 18 hrs at 37° C. in 5% CO2, supernatants were removed and PGE2 and TXB2 (the stable hydrolysis product of TXA2) production were measured by radioimmunoassay (RIA). ANOVA followed by Newman-Keuls multiple comparisons test was used to examine differences between doses and the control values.

[2] = system: eNOS; assay: eNOS mRNA expression in HAECs (real-time PCR); type: cell-based, human; details: 10 μM; for increase of eNOS mRNA over vehicle control (average): two more assays
Method: HAECs were grown as described above.

[3] = system: A10; assay: Proliferation of rat aorta media cell line A10; type: cell-based; details: 72 h, three days, read-out: VSMC proliferation - IC50 (μM), A10
Method: Human umbilical vein smooth muscle cells (HUVSMC), tissue explants from a neonate (HRI— passage 2), were seeded into 96 well plates at 1×10^3 cells per well, and allowed to attach for 24 hours. They were then washed twice and incubated in medium without FBS for 24-48 hours to serum-starve them. Test compounds were prepared in medium without FBS and added to the plates and incubated for one hour. Medium with FBS was added to give a final concentration of 10% and the plates incubated for 5 days until the controls were just confluent. Final analogue concentration was therefore either a series from 150 μM to 1.2 μM, or single concentrations of 10 μM. The difference in absorbance between treated cells and untreated cells was calculated using the formula, test/control*100, to obtain the percentage change caused by the test compound. As well, an IC50 for each compound was calculated.
The effect of test compounds a rat aortic smooth muscle cell line (A7r5) and another cell line from the media of rat aorta (A10) was examined. The methodology was the same as for HUVSMC, except that the cells were treated with compound for three days.

[4] = THP-1 cell viability; type: cell-based; details: human, THP-1 cells, read-out: reduction of viability of the THP-1 cells
Method: MTT is bioreduced by viable cells into a coloured formazan product that is soluble in DMSO. Thus the quantity of formazan product is directly proportional to the number of living cells in culture, and can be measured using a spectrophotometer at 570 nm. These compounds reduce MTT in the absence of cells, resulting in a change in substrate colour from yellow to purple. This activity is dependent on the reducing power of each compound and was measured at 5 concentrations (data not shown). The ability of compounds to reduce MTT was not related to their ability to inhibit NFkB-activity.

[5] = system: Dark Agouti rats (air pouch); assay: Rat air pouch assay (serum-treated zymozan); type: in vivo; details: for Leucocytes in lavage fluid (×10^−7) / Polymorphs in tissue sections (per 100 squares): 4 h; for activity in the rat air pouch assay: in vivo
Method: Air pouches were raised on the dorsum of female Dark Agouti rats, approximately seven weeks of age. To promote the formation of a cellular membrane lining the inside of each pouch, the pouches were maintained by re-inflating on days 2 and 5 after the initial injection of air. On re-inflation, the pouch was first deflated to ensure the needle was positioned correctly, before being re-inflated with 2 mL of sterile air. Using this protocol, the pouches remained inflated until use on day 7, when they were injected with 0.5 ml of either test compound or vehicle control. After 15 min, air pouches were injected with serum-treated zymozan (500 μg). Lavage of the air pouch was performed at 4 h and leucocytes counted, after which the rats were killed, the air pouch excised and processed in formalin for histology. The sections were blinded to the person counting. Using a graticule with 100 squares and the 40× objective, the number of polymorphs were counted in the pouch lining at 10 different and non-adjacent sites. Group sizes were 5-6 rats. Data were analysed for statistical significance within each experiment and using an unpaired t test.

[6] = system: VCAM-1; assay: TNFα-induced VCAM expression on HAECs (ELISA); type: cell-based, human; details: 10 μM
Method: (§1) Inhibition of TNFα-stimulated endothelial cell activation by compounds was assessed by measuring surface expression of cell adhesion molecules with an ELISA. Human arterial endothelial cells (HAECs) in growth medium (Cell Applications Inc.) were seeded into 96-well plates at a density of 10,000 cells per well. Plates were incubated overnight at 37° C. in a humidified incubator to allow for cells to become confluent. On the morning of the experiment, TNFα (10 μl, 2 ng/ml) was added to each well, which contained 100 μl of medium. Compounds were diluted in DMSO-containing medium (2.5% DMSO) to give a compound concentration of 100 and 300 μM. Compounds were added to wells so that final concentrations were 10 and 30 μM. DMSO-containing medium alone was added to zero concentration control wells. All samples were measured in quadruplicate (4 wells per treatment).
After incubation with compound for 4 hours, medium was removed and cells were probed with either non-specific IgG or specific mouse antibodies against VCAM, ICAM or E-selectin (BD Biosciences—0.1 μg in 100 μL buffered saline with 10% heat-inactivated human serum). Adhesion molecule expression was detected by addition of sheep anti-mouse antibody/horseradish peroxidase conjugate. Plates were allowed to stand for 30 minutes—monolayers were then washed, and sheep anti-mouse antibody/horseradish peroxidase conjugate (1:500 in 100 μL HBSS with 10% heat-inactivated human serum and 0.05% Tween 20) was added and left for 30 minutes. After further washing, 150 μL ABTS substrate (Kirkegaard and Perry Laboratories) was added to each well and allowed to develop for 15 minutes. Optical density was measured at 405 nm with an ELISA reader (Titertek Multiscan, Flow Laboratories).

[7] = system: E-selectin; assay: TNFα-induced E-selectin expression on HAECs (ELISA); type: cell-based, human; details: 10 μM
Method: as §1
After incubation with compound for 4 hours, medium was removed and cells were probed with either non-specific IgG or specific mouse antibodies against VCAM, ICAM or E-selectin (BD Biosciences—0.1 μg in 100 μL buffered saline with 10% heat-inactivated human serum). Adhesion molecule expression was detected by addition of sheep anti-mouse antibody/horseradish peroxidase conjugate. […] Optical density was measured at 405 nm with an ELISA reader (Titertek Multiscan, Flow Laboratories).

Compound | COX inhibitory activity (inhibition of PGE2 and TXA2 production) [1] | expression of eNOS ([2]; 24 hrs, HAECs) | increase of eNOS mRNA over vehicle control (average) [2] | IC50 [3] | cytotoxicity at 30 μM [4] | Leucocytes in lavage fluid (×10^−7) ([5]; 1 mM added to air pouch) | Polymorphs in tissue sections (per 100 squares) ([5]; 1 mM added to air pouch) | activity in the rat air pouch assay [5] | TNFα-induced VCAM expression [6] | Leucocytes in lavage fluid (×10^−7) ([5]; 100 μM added to air pouch) | Polymorphs in tissue sections (per 100 squares) ([5]; 100 μM added to air pouch) | TNFα-induced E-selectin expression [7]
Cc1c(O)ccc2c1OCC(c1cccc(O)c1)=C2 [Cpd. 14, 3′,7-Dihydroxy-8-methylisoflav-3-ene] | significant COX inhibitory activity | significantly increased | 86% | 10 µM | – | – | – | – | – | – | – | –
COc1cccc(C2=Cc3ccc(O)cc3OC2)c1 [Cpd. 16, 7-Hydroxy-3′-methoxyisoflav-3-ene] | significant COX inhibitory activity | – | – | 31 µM | ~10% | 0.53 ± 0.35 ×10^−7 | 14.1 ± 15.8 per 100 squares | active | intermediate activity | – | – | –
COc1ccc(C2=Cc3ccc(O)cc3OC2)cc1OC [Cpd. 18, 7-Hydroxy-3′,4′-dimethoxyisoflav-3-ene] | significant COX inhibitory activity | – | 62% | – | – | 0.51 ± 0.33 ×10^−7 | 6.3 ± 1.3 per 100 squares | active | significantly inhibited | 0.88 ± 0.30 ×10^−7 | 23.2 ± 10.4 per 100 squares | inhibited
COc1ccc(C2=Cc3ccc(O)c(C)c3OC2)cc1OC [Cpd. 19, 7-Hydroxy-3′,4′-dimethoxy-8-methylisoflav-3-ene] | significant COX inhibitory activity | – | – | – | – | – | – | – | significantly inhibited | – | – | –
Oc1ccc(C2=Cc3ccc(O)c(Br)c3OC2)cc1 [Cpd. 20, 4′,7-Dihydroxy-8-bromoisoflav-3-ene] | significant COX inhibitory activity | – | – | – | – | – | – | – | significantly inhibited | – | – | inhibited
Oc1ccc2c(c1)OCC(c1ccc(Br)cc1)=C2 [Cpd. 21, 4′-Bromo-7-hydroxyisoflav-3-ene] | – | – | – | – | ~10% | – | – | – | – | – | – | –
